Test results: patent US9670227B2, “Thienopyrimidine derivatives, a process for their preparation and pharmaceutical compositions containing them” (LES LABORATOIRES SERVIER, priority 2013, dated 2017)
Where two headings read alike, the source gives them in different places. Blank lines part the entries; values can stand above or below the molecule they belong to.

Key:
[1] = test system: AMO-1 multiple myeloma cells; assay: Quantification of the cleaved form of PARP in vivo (MSD ELISA, tumour lysates); parameters: species or system mice (SCID strain); conditions: activation factor: cleaved PARP in treated mice / control mice, AMO-1 xenograft in SCID mice, intraveinous or oral routes
Protocol: The ability of the compounds of the invention to induce apoptosis, by measuring cleaved PARP levels, is evaluated in a xenograft model of AMO-1 multiple myeloma cells. 1.10^7 AMO-1 cells are grafted sub-cutaneously into immunosuppressed mice (SCID strain). 12 to 14 days after the graft, the animals are treated by intraveinous or oral routes with the various compounds. After treatment, the tumour masses are recovered and lysed, and the cleaved form of PARP is quantified in the tumour lysates.
The quantification is carried out using the “Meso Scale Discovery (MSD) ELISA platform” test, which specifically assays the cleaved form of PARP. It is expressed in the form of an activation factor corresponding to the ratio between the quantity of cleaved PARP in the treated mice divided by the quantity of cleaved PARP in the control mice.

[2] = molecular target: Mcl-1 protein (UniProtKB primary accession number: Q07820) (Homo sapiens, UniProt Q07820); assay: Inhibition of Mcl-1 by fluorescence polarisation, Method 1; format: binding; conditions: fluorescence polarisation test, read-out: IC50 (M) Mcl-1 FP
Method in brief: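 Fluorescence polarisation competition with an 11-point compound dilution series (final DMSO 5%). Mcl-1 protein at 5 nM and fluorescein-labelled ligand at 1 nM (final) in 10 mM HEPES, 150 mM NaCl, 0.05% Tween 20, pH 7.4.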

[3] = test system: H929 multiple myeloma tumour line; assay: In vitro cytotoxicity, Microculture Tetrazolium Assay; format: cell-based; conditions: H929 cells, 48 hours exposure, MTT, read-out: IC50 (μM) MTT H929
Protocol: The cytotoxicity studies were carried out on the H929 multiple myeloma tumour line.
The cells are distributed onto microplates and exposed to the test compounds for 48 hours.

[4] = Method 2 values are underlined in the patent (underlining not visible here)

Chain of Mcl-1 protein (Q07820 whole entry): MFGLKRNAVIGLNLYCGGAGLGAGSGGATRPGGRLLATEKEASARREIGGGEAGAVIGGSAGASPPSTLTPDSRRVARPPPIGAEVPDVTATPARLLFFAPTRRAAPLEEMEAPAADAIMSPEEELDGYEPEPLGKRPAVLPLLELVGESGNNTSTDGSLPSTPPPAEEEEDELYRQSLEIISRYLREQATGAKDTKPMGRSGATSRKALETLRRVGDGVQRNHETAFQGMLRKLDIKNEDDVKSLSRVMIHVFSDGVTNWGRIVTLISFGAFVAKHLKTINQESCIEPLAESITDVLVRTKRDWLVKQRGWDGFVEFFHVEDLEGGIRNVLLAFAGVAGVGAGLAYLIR

SMILES: COCc1nccc(COc2ccccc2CC(Oc2ncnc3sc(-c4ccc(F)cc4)c(-c4ccc(OCCN5CCN(C)CC5)c(Cl)c4C)c23)C(=O)O)n1 [Example 45, (2R)-2-{[(5Sa)-5-{3-chloro-2-methyl-4-[2-(4-methylpiperazin-1-yl)ethoxy]phenyl}-6-(4-fluorophenyl)thieno[2,3-d]pyrimidin-4-yl]oxy}-3-(2-{[2-(methoxymethyl)pyrimidin-4-yl]methoxy}phenyl)propanoic acid]
PARP fold [1]: 194.3 fold
IC50 [2, 4]: 6.7e-09 M
IC50 ([3]; Homo sapiens, NCI-H929, 48 h): 0.009 µM

SMILES: CCOCc1nccc(COc2ccccc2C[C@@H](Oc2ncnc3sc(-c4ccc(F)cc4)c(-c4ccc(OCCN5CCN(C)CC5)c(Cl)c4C)c23)C(=O)O)n1 [Example 47, (2R)-2-{[(5Sa)-5-{3-chloro-2-methyl-4-[2-(4-methylpiperazin-1-yl)ethoxy]phenyl}-6-(4-fluorophenyl)thieno[2,3-d]pyrimidin-4-yl]oxy}-3-(2-{[2-(ethoxymethyl)pyrimidin-4-yl]methoxy}phenyl)propanoic acid]
PARP fold [1]: 101.1 fold
IC50 [2, 4]: 7.8e-09 M
IC50 [3]: 0.005 µM

SMILES: Cc1c(-c2c(-c3ccc(F)cc3)sc3ncnc(OC(Cc4ccccc4OCc4ccnc(OC(C)C)n4)C(=O)O)c23)ccc(OCCN2CCN(C)CC2)c1Cl [Example 55, (2R)-2-{[(5Sa)-5-{3-chloro-2-methyl-4-[2-(4-methylpiperazin-1-yl)ethoxy]phenyl}-6-(4-fluorophenyl)thieno[2,3-d]pyrimidin-4-yl]oxy}-3-(2-{[2-(propan-2-yloxy)pyrimidin-4-yl]methoxy}phenyl)propanoic acid]
PARP fold [1]: 188.4 fold
IC50 [2, 4]: 5.8e-09 M
IC50 ([3]; Homo sapiens, NCI-H929, 48 h): 0.007 µM

SMILES: CCOc1nccc(COc2ccccc2CC(Oc2ncnc3sc(-c4ccc(F)cc4)c(-c4ccc(OCCN5CCN(C)CC5)c(Cl)c4C)c23)C(=O)O)n1 [Example 57, (2R)-2-{[(5Sa)-5-{3-chloro-2-methyl-4-[2-(4-methylpiperazin-1-yl)ethoxy]phenyl}-6-(4-fluorophenyl)thieno[2,3-d]pyrimidin-4-yl]oxy}-3-{2-[(2-ethoxypyrimidin-4-yl)methoxy]phenyl}propanoic acid]
PARP fold [1]: 198.3 fold
IC50 [2, 4]: 5e-09 M
IC50 ([3]; Homo sapiens, NCI-H929, 48 h): 0.008 µM

SMILES: COCCOc1nccc(COc2ccccc2CC(Oc2ncnc3sc(-c4ccc(F)cc4)c(-c4ccc(OCCN5CCN(C)CC5)c(Cl)c4C)c23)C(=O)O)n1 [Example 63, (2R)-2-{[(5Sa)-5-{3-chloro-2-methyl-4-[2-(4-methylpiperazin-1-yl)ethoxy]phenyl}-6-(4-fluorophenyl)thieno[2,3-d]pyrimidin-4-yl]oxy}-3-(2-{[2-(2-methoxyethoxy)pyrimidin-4-yl]methoxy}phenyl)propanoic acid]
PARP fold [1]: 177.8 fold
IC50 [2, 4]: 4.5e-09 M
IC50 ([3]; Homo sapiens, NCI-H929, 48 h): 0.009 µM

SMILES: CCCCn1nncc1COc1ccccc1CC(Oc1ncnc2sc(-c3ccc(F)cc3)c(-c3ccc(OCCN4CCN(C)CC4)c(Cl)c3C)c12)C(=O)O [Example 95, (2R)-3-{2-[(1-butyl-1H-1,2,3-triazol-5-yl)methoxy]phenyl}-2-{[(5Sa)-5-{3-chloro-2-methyl-4-[2-(4-methylpiperazin-1-yl)ethoxy]phenyl}-6-(4-fluorophenyl)thieno[2,3-d]pyrimidin-4-yl]oxy}propanoic acid]
PARP fold [1]: 156.8 fold
IC50 [2, 4]: 4.2e-09 M
IC50 ([3]; Homo sapiens, NCI-H929, 48 h): 0.022 µM

SMILES: Cc1cc(-c2nccc(COc3ccccc3CC(Oc3ncnc4sc(-c5ccc(F)cc5)c(-c5ccc(OCCN6CCN(C)CC6)c(Cl)c5C)c34)C(=O)O)n2)ccn1 [Example 118, (2R)-2-{[(5Sa)-5-{3-chloro-2-methyl-4-[2-(4-methylpiperazin-1-yl)ethoxy]phenyl}-6-(4-fluorophenyl)thieno[2,3-d]pyrimidin-4-yl]oxy}-3-(2-{[2-(2-methylpyridin-4-yl)pyrimidin-4-yl]methoxy}phenyl)propanoic acid]
PARP fold [1]: 159.8 fold
IC50 [2, 4]: 5.5e-09 M
IC50 ([3]; Homo sapiens, NCI-H929, 48 h): 0.006 µM

SMILES: Cc1ccncc1-c1nccc(COc2ccccc2CC(Oc2ncnc3sc(-c4ccc(F)cc4)c(-c4ccc(OCCN(C)C)c(Cl)c4C)c23)C(=O)O)n1 [Example 138, (2R)-2-{[(5Sa)-5-{3-chloro-4-[2-(dimethylamino)ethoxy]-2-methylphenyl}-6-(4-fluorophenyl)thieno[2,3-d]pyrimidin-4-yl]oxy}-3-(2-{[2-(4-methylpyridin-3-yl)pyrimidin-4-yl]methoxy}phenyl)propanoic acid]
PARP fold [1]: 333.9 fold
IC50 [2, 4]: 8.9e-09 M
IC50 ([3]; Homo sapiens, NCI-H929, 48 h): 0.013 µM

SMILES: Cc1c(-c2c(-c3ccc(F)o3)sc3ncnc(OC(Cc4ccccc4OCc4ccnc(C(F)(F)F)c4)C(=O)O)c23)ccc(OCCN2CCN(C)CC2)c1Cl [Example 167, (2R)-2-{[(5Sa)-5-{3-chloro-2-methyl-4-[2-(4-methylpiperazin-1-yl)ethoxy]phenyl}-6-(5-fluorofuran-2-yl)thieno[2,3-d]pyrimidin-4-yl]oxy}-3-(2-{[2-(trifluoromethyl)pyridin-4-yl]methoxy}phenyl)propanoic acid]
PARP fold [1]: 230.1 fold
IC50 [2, 4]: 4.6e-09 M
IC50 ([3]; Homo sapiens, NCI-H929, 48 h): 0.01 µM

SMILES: CCOC(=O)C(Cc1ccccc1OCc1ccnn1C(C)(C)C)Oc1ncnc2sc(-c3ccc(F)cc3)c(-c3ccc(OCCN(C)C)c(Cl)c3C)c12 [Example 794, ethyl (2R)-3-{2-[(1-tert-butyl-1H-pyrazol-5-yl)methoxy]phenyl}-2-{[(5Sa)-5-{3-chloro-4-[2-(dimethylamino)ethoxy]-2-methylphenyl}-6-(4-fluorophenyl)thieno[2,3-d]pyrimidin-4-yl]oxy}propanoate]
PARP fold [1]: 125.6 fold
IC50 ([2]; Method 1, or Method 2 where the value is underlined (underlining not visible)): 5.35e-06 M

Further lines, with some results ahead:

IC50 [2, 4]: 2.9e-09 M
SMILES: CCCc1nccc(COc2ccccc2CC(Oc2ncnc3sc(-c4ccc(F)cc4)c(-c4ccc(OCCN5CCN(C)CC5)c(Cl)c4C)c23)C(=O)O)n1 [Example 41, (2R)-2-{[(5Sa)-5-{3-chloro-2-methyl-4-[2-(4-methylpiperazin-1-yl)ethoxy]phenyl}-6-(4-fluorophenyl)thieno[2,3-d]pyrimidin-4-yl]oxy}-3-{2-[(2-propylpyrimidin-4-yl)methoxy]phenyl}propanoic acid]
PARP fold [1]: 288.1 fold
IC50 ([3]; Homo sapiens, NCI-H929, 48 h): 0.007 µM

IC50 [2, 4]: 2.5e-09 M
SMILES: Cc1c(-c2c(-c3ccc(F)cc3)sc3ncnc(OC(Cc4ccccc4OCc4ccnc(-n5cccn5)n4)C(=O)O)c23)ccc(OCCN2CCN(C)CC2)c1Cl [Example 49, (2R)-2-{[(5Sa)-5-{3-chloro-2-methyl-4-[2-(4-methylpiperazin-1-yl)ethoxy]phenyl}-6-(4-fluorophenyl)thieno[2,3-d]pyrimidin-4-yl]oxy}-3-(2-{[2-(1H-pyrazol-1-yl)pyrimidin-4-yl]methoxy}phenyl)propanoic acid]
PARP fold [1]: 180.5 fold
IC50 ([3]; Homo sapiens, NCI-H929, 48 h): 0.012 µM

IC50 [2, 4]: 3.4e-09 M
SMILES: COCCNc1nccc(COc2ccccc2CC(Oc2ncnc3sc(-c4ccc(F)cc4)c(-c4ccc(OCCN5CCN(C)CC5)c(Cl)c4C)c23)C(=O)O)n1 [Example 53, (2R)-2-{[(5Sa)-5-{3-chloro-2-methyl-4-[2-(4-methylpiperazin-1-yl)ethoxy]phenyl}-6-(4-fluorophenyl)thieno[2,3-d]pyrimidin-4-yl]oxy}-3-[2-({2-[(2-methoxyethyl)amino]pyrimidin-4-yl}methoxy)phenyl]propanoic acid]
PARP fold [1]: 178.7 fold
IC50 ([3]; Homo sapiens, NCI-H929, 48 h): 0.015 µM

IC50 [2, 4]: 4e-09 M
SMILES: Cc1c(-c2c(-c3ccc(F)cc3)sc3ncnc(OC(Cc4ccccc4OCc4ccnc(OCC(F)(F)F)n4)C(=O)O)c23)ccc(OCCN2CCN(C)CC2)c1Cl [Example 58, (2R)-2-{[(5Sa)-5-{3-chloro-2-methyl-4-[2-(4-methylpiperazin-1-yl)ethoxy]phenyl}-6-(4-fluorophenyl)thieno[2,3-d]pyrimidin-4-yl]oxy}-3-(2-{[2-(2,2,2-trifluoroethoxy)pyrimidin-4-yl]methoxy}phenyl)propanoic acid]
PARP fold [1]: 181.9 fold
IC50 ([3]; Homo sapiens, NCI-H929, 48 h): 0.01 µM

IC50 [2, 4]: 3.9e-09 M
SMILES: Cc1c(-c2c(-c3ccc(F)cc3)sc3ncnc(OC(Cc4ccccc4OCc4ccnc(OCCC(F)(F)F)n4)C(=O)O)c23)ccc(OCCN2CCN(C)CC2)c1Cl [Example 62, (2R)-2-{[(5Sa)-5-{3-chloro-2-methyl-4-[2-(4-methylpiperazin-1-yl)ethoxy]phenyl}-6-(4-fluorophenyl)thieno[2,3-d]pyrimidin-4-yl]oxy}-3-(2-{[2-(3,3,3-trifluoropropoxy)pyrimidin-4-yl]methoxy}phenyl)propanoic acid]
PARP fold [1]: 391.6 fold
IC50 ([3]; Homo sapiens, NCI-H929, 48 h): 0.008 µM

IC50 [2, 4]: 2.1e-09 M
SMILES: Cc1c(-c2c(-c3ccc(F)cc3)sc3ncnc(OC(Cc4ccccc4OCc4ccnc(-c5ccccc5F)n4)C(=O)O)c23)ccc(OCCN2CCN(C)CC2)c1Cl [Example 114, (2R)-2-{[(5Sa)-5-{3-chloro-2-methyl-4-[2-(4-methylpiperazin-1-yl)ethoxy]phenyl}-6-(4-fluorophenyl)thieno[2,3-d]pyrimidin-4-yl]oxy}-3-(2-{[2-(2-fluorophenyl)pyrimidin-4-yl]methoxy}phenyl)propanoic acid]
PARP fold [1]: 158.2 fold
IC50 ([3]; Homo sapiens, NCI-H929, 48 h): 0.005 µM
